Data set [1] concerns IL-33 signaling (HEK-Blue IL-33 cells). In words: SEAP reporter assay in HEK-Blue IL-33 reporter cells. Format: cell-based, human. As for the experimental part: HEK-Blue® IL-33 (Invivogen, Cat. #hkb-hil33) and IL-1β cells (Invivogen, Cat #hkb-il1bv2) were cultured in T25 and T75 flasks (NUNC, Cat. #156367 and #156499) in DMEM media supplemented with L-glutamine (Gibco, Cat. #11995-065), 10% Fetal Bovine Serum (Gibco, Cat. #10437-028), 1% Penicillin/Streptomycin (Gibco, Cat. #15140-148), and 0.5% Normacin® (Invivogen, Cat. #ant-hr-1). IL-33 cell growth media also included 1 mL of 250× Selectin Cocktail® (Invivogen, Cat. #hb-sel) and IL-1β cell growth media included 100 μg/mL of Zeocin® (Cat #ant-zn-05). Cells were maintained at 37° C. with humidity and 5% CO2 and were passaged upon reaching 80-85% confluency. […]
IL-33 and IL-1β signaling activation was assessed based on the expression of a SEAP reporter gene. […] Pellet was resuspended in 5 mL test medium (DMEM, 10% heat inactivated FBS, and 1% P/S), cells counted, and concentration adjusted to 2.8×10^5 cell/mL. […] After incubation, SEAP reporter gene phosphatase activity was measured by adding 20 μL of supernatant from each well to 180 μL of QuantiBLUE substrate (Invivogen, Cat #rep-qbs) and incubated an additional 30 min at 37° C. Colorimetric absorbance was measured at 620 nm. […]
MSTOP bioactivity was determined in a reporter gene cell model. […] After six hours, IL-33 signaling was quantified by absorbance at 620 nm, based on the metabolism of QUANTI-Blue substrate by expressed SEAP secreted into the media.

The subject of another data set is HEK-Blue cells. The data set is described as follows: CellTiterGlo cell viability / cellular cytotoxicity assay. Format: cell-based, human. For orientation: Cellular ATP, detected with luciferase, serves as a proxy for viable cell number.

Bridges are numbered along the chain shown (N, C = ends). Roman numbers before positions name the chains, in order.

As for “MSTOP: 3WJ DNA scaffold whose three DBCO staple strands carry cyclized azidolysine IL-1RAcP hotspot peptides; decoy for IL-33/ST2 (peptide 1 Ac-CKEYGIQRITC-NH2; peptide 2 Ac-AKVGSPKNAVPPC-NH2; peptide 3 Ac-CKGEVAKAAKVKC-NH2; disulfide I:1-I:11, III:1-III:13; thioether II:1-II:13; not fully specified (some residues); also: three peptides held on a 3-way junction DNA scaffold via DBCO staple strands)”, the “reduction in IL-33 induced SEAP expression” value in data set [1] (1 μM, 100 pg/mL IL-33, 6 h) is reported as ~40%. Further, the “inhibition of IL-33 cells compared to IL-1β cells” value in data set [1] (MSTOP dose curve 10 μM to 10 nM) is “Significant inhibition”. In addition, the cell viability result in the data set with HEK-Blue cells (10 μM, CellTiterGlo) is “did not decrease cell viability”. In addition, in the data set on HEK-Blue cells (FIG. 4F, concentrations in μM), the cellular cytotoxicity entry was “not toxic”.

The values are drawn from patent US20240084044A1, “Heteromultivalent Nucleic Acid Scaffolds and Uses Thereof” (George Mason University, priority 2022, published 2024).
